Like-named read-outs stand apart in the source and are kept apart here.
What was measured:
EMT6 = assay: cytotoxicity, 4 h aerobic drug exposure, EMT6; format: cell-based, murine; settings: read-out: IC50 EMT6
UV4 cell line = assay: cytotoxicity, 4 h aerobic drug exposure, UV4; format: cell-based, Chinese hamster; settings: read-out: IC50 UV4
SKOV3 [1] = assay: cytotoxicity, 4 h aerobic drug exposure, SKOV3; format: cell-based, human; settings: read-out: IC50 SKOV3
AA8 = assay: cytotoxicity, 4 h aerobic drug exposure, AA8; format: cell-based, Chinese hamster; settings: read-out: IC50 AA8
[2] = system: panel of mammalian cell lines; assay: cytotoxicity in a panel of mammalian cell lines (summary in words); settings: summary of Table 2
A549 wt/s = assay: cytotoxicity under oxic and anoxic conditions, A549 wt/s; format: cell-based, human; settings: for IC50: Homo sapiens, A549, 4 h exposure
Protocol: (§1) The metal complexes also show an ability to be activated by endogenous enzymes under hypoxia, as shown for metal complex M1 in Table 4 and FIG. 2. […] Thus the metal complexes have utility as hypoxia- as well as radiation-activated cytotoxins.
(§2) In Table 4, A549wt/s is a wild-type human […] carcinoma cell line, SKOV3 is a human ovarian cancer cell line and WiDr-2 is a clonal cell line derived from the WiDr human colon carcinoma line. IC50s (in μM are determined under both oxic and hypoxic conditions, and the hypoxic cytotoxicity ratio (HCR) is the average intra-experiment ratio of the IC50s measured under oxic and hypoxic conditions.

HT29 cultures = assay: activation by endogenous enzymes under hypoxia (Table 4 and FIG. 2); format: cell-based; settings: summary of Table 4 and FIG. 2
Excerpt: as §1

SKOV3 [3] = assay: cytotoxicity under oxic and anoxic conditions, SKOV3; format: cell-based, human; settings: for IC50: Homo sapiens, SK-OV-3, 4 h exposure
Protocol: as §1, §2

[4] = Cricetulus griseus, CHO-AA8, 4 h
[5] = average intra-experiment ratio of IC50s oxic/hypoxic
[6] = 4 h aerobic exposure, mean ± sem

In the case of `CN(C)CCOC1(O)C=CC2=NC(C(=O)N3CC(CCl)c4c3ccc3ncccc43)=CC2=C1` (centres unmarked), the melting point is reported as 176 to 179 °C.
For `COc1ccc2[nH]c(C(=O)N3CC(CCl)c4c3cc(O)c3ncccc43)cc2c1` (centres unmarked), the melting point was 186 to 189 °C.
Work on `COc1ccc(/C=C/C(=O)N2CC(CCl)c3c2cc(O)c2ncccc32)cc1` (centres unmarked) yielded a melting point of 208 to 211 °C.
For `COc1ccc(/C=C/C(=O)N2CC(CCl)c3c2cc(O)c2ncccc32)cc1O` (centres unmarked), the melting point was 215 to 218 °C.
Work on `Cl.Cl.Cl.Cl.O=S(=O)(O)CCCN1CCNCCN(CCCS(=O)(=O)O)CCNCC1` yielded a melting point of 279 to 281 °C.
`Cl.Cl.Cl.Cl.O=S(=O)(O)CCCCN1CCNCCNCCNCC1` gave a melting point of 301 to 303 °C.
`Oc1cccc2cccnc12` [Compound 8-HQ, 8-hydroxyquinoline, reference compound] showed an IC50 (EMT6; Mus musculus, EMT6, 4 h) of 3.92 ± 1.04 µM, an IC50 (UV4 cell line; Cricetulus griseus, UV4, 4 h) of 2.16 ± 0.12 µM and an IC50 (SKOV3 [1]; Homo sapiens, SK-OV-3, 4 h) of 4.07 ± 0.89 µM. The IC50 (AA8; [4]) was 2.07 ± 0.02 µM.
For `COc1cc2cc(C(=O)N3CC(CCl)c4c3cc(O)c3ncccc43)[nH]c2c(OC)c1OC` (centres unmarked) [Compound 18a, 1-(Chloromethyl)-5-hydroxy-3-[(5,6,7-trimethoxyindol-2-yl)carbonyl]-2,3-dihydro-1H-pyrrolo[3,2-f]quinoline], the IC50 (EMT6; Mus musculus, EMT6, 4 h) was 5.1e-05 ± 8e-06 µM, the cytotoxicity in words [2] was “exceptionally cytotoxic” and the IC50 (UV4 cell line; Cricetulus griseus, UV4, 4 h) was 7e-05 ± 1.5e-05 µM. It also gave an IC50 (SKOV3 [1]; Homo sapiens, SK-OV-3, 4 h) of 0.00025 ± 3.7e-05 µM, an IC50 (A549 wt/s; anoxic, read-out: IC50 A549 wt/s anoxic) of 0.05 ± 0.014 nM and an IC50 (A549 wt/s; oxic, read-out: IC50 A549 wt/s oxic) of 0.05 ± 0.016 nM. The “HCR A549 wt/s (hypoxic cytotoxicity ratio)” value (A549 wt/s; [5]) was 0.79 ± 0.35(2), the IC50 (AA8; [4]) was 0.00014 ± 2.2e-05 µM and the “activation by endogenous enzymes under hypoxia, in words” value (HT29 cultures) was “not activated by endogenous enzymes under hypoxic conditions”. The IC50 (SKOV3 [3]; anoxic, read-out: IC50 SKOV3 anoxic) was 0.00035 ± 9.3e-05 µM, the IC50 (SKOV3 [3]; oxic, read-out: IC50 SKOV3 oxic) was 0.00025 ± 3.7e-05 µM and the “HCR SKOV3 (hypoxic cytotoxicity ratio)” value (SKOV3 [3]; [5]) was 0.61(1).
In the case of `COc1cc2cc(C(=O)N3CC(CCl)c4c3cc(N)c3ncccc43)[nH]c2c(OC)c1OC` (centres unmarked) [Compound 27, 5-Amino-1-(chloromethyl)-3-[(5,6,7-trimethoxyindol-2-yl)carbonyl]-2,3-dihydro-1H-pyrrolo[3,2-f]quinoline], the IC50 (EMT6; Mus musculus, EMT6, 4 h aerobic exposure, mean ± sem) is reported as 0.0026 ± 0.0005 µM, the cytotoxicity in words [2] is reported as “exceptionally cytotoxic” and the IC50 (UV4 cell line; Cricetulus griseus, UV4, 4 h aerobic exposure, mean ± sem) is reported as 0.0029 ± 0.006 µM. It also gave an IC50 (SKOV3 [1]; Homo sapiens, SK-OV-3, 4 h aerobic exposure, mean ± sem) of 0.012 ± 0.0023 µM, a melting point of 258 to 263 °C and an IC50 (AA8; Cricetulus griseus, CHO-AA8, 4 h aerobic exposure, mean ± sem) of 0.0079 ± 0.002 µM.
In the case of `COc1cc2cc(C(=O)N3CC(CCl)c4c3cc(NCCN)c3ccccc43)[nH]c2c(OC)c1OC.Cl.Cl` (centres unmarked) [Compound 29, 5-(2-aminoethylamino)-3-[(5,6,7-trimethoxyindol-2-yl)carbonyl]-1-(chloromethyl)-1,2-dihydro-3H-benz[e]indole dihydrochloride], the IC50 (EMT6; Mus musculus, EMT6, 4 h) is reported as 0.0028 µM, the cytotoxicity in words [2] is reported as “exceptionally cytotoxic” and the IC50 (UV4 cell line; Cricetulus griseus, UV4, 4 h) is reported as 0.0041 ± 0.0003 µM. It also gave an IC50 (SKOV3 [1]; Homo sapiens, SK-OV-3, 4 h) of 0.0062 µM, a melting point greater than 200 °C and an IC50 (AA8; [4]) of 0.0058 ± 0.0007 µM.
Compound `C1CNCCNCCNCCN1` [Cyclen, reference compound] has an IC50 (EMT6; [6]) of 9710 ± 2710 µM, an IC50 (UV4 cell line; [6]) of 13800 ± 2180 µM and an IC50 (SKOV3 [1]; [6]) of 11500 ± 4410 µM. For the same compound, the IC50 (AA8; [6]) was 13300 ± 2670 µM.

From US7064117B2, “Anti-cancer 2,3-dihydro-1H-pyrrolo[3,2-f]quinoline complexes of cobalt and chromium” (Auckland Uniservices Limited, priority 2001, dated 2006)
